The results in this text go back to US8202902B2, “Bivalent SMAC mimetics and the uses thereof” (The Regents of the University of Michigan, priority 2006, dated 2012).

Experiment [1] deals with SK-OV-3 ovarian cancer cell line. Briefly: Apoptosis assay (Annexin V/P.I.), SK-OV-3. It is filed as cell-based. The note with it: 1 nM for 12 h. On the procedure: Analysis of apoptosis was performed using an apoptosis detection kit (BioVision Research Products, Mountain View, Calif.) according to the manufacturer's protocol. Briefly, cells were treated with Smac mimetics for 12 hours, harvested and washed with ice-cold PBS. Cells were stained with Annexin V-FITC and Propidium iodide (P.I.) for 15 minutes at room temperature in the dark and immediately analyzed by FACS calibur flow cytometer (Becton Dickinson, Erembodegem, Belgium). Cells that were stained Annexin V (+) and P.I. (−) were considered early-stage apoptotic cells. Cells that were stained annexin V (+) and P.I. (+) were considered late-stage apoptotic cells and cells that were stained annexin V (−) and P.I. (+) were considered necrotic cells (FIG. 6).
Treatment with SM-164 at 1 nM for 12 h induced 32%, 33%, and 37% of the MDA-MB-231, SK-OV-3 and MALME-3M cells to undergo apoptosis, respectively (FIGS. 12-14).

Experiment [2] concerns MDA-MB-231, MALME-3M and SK-OV-3 cell lines. Briefly: Cell death induction with TNFα or TRAIL neutralizing antibody. It is filed as cell-based.

In the case of `CN[C@@H](C)C(=O)N[C@H]1CCCC[C@H]2CC[C@@H](C(=O)N[C@@H](c3ccccc3)c3cn(CCCCc4ccc(CCCCn5cc([C@@H](NC(=O)[C@@H]6CC[C@@H]7CCCC[C@H](NC(=O)[C@H](C)NC)C(=O)N76)c6ccccc6)nn5)cc4)nn3)N2C1=O` [SH-164], the cells undergoing apoptosis in experiment [1] is recorded as 33%. Also, the “cell death induction in presence of neutralizing antibodies” value in experiment [2] is given as “effectively blocked by a TNFα, but not by a TRAIL, neutralizing antibody”.
